The subject of data set [1] is spasmodic seizures caused by pentetrazole. As to the kind of experiment: antipentetrazole test (mice, oral). Format: in vivo. Particulars: Mus musculus, 0.5 h, 30 minutes before 120 mg/kg pentetrazole i.p., dosage protecting 50% of animals, Probit method. Here is the method:
As mentioned earlier, the compounds of formula I have valuable pharmacological properties. In particular they display pronounced muscle relaxant, sedative-hypnotic, anticonvulsive and/or anxiolytic properties and have only a low toxicity.
(§1) In this animal experiment the compound under investigation is administered orally to mice and 30 minutes later there are administered intraperitoneally 120 mg/kg of pentetrazole, which causes emprosthotonus and tonic stretchings of the fore and/or hind limbs in unprotected animals 1-4 minutes after the injection. 10 experimental animals are used per dosage of test substance. After counting the protected experimental animals the ED50 is determined according to the Probit method. The ED50 is that dosage which protects 50% of the experimental animals from the spasmodic seizures caused by pentetrazole. The results which have been obtained with representative members of the class of compound defined by formula I in the experiment described previously are compiled in the following Table. Moreover, the Table contains data concerning the acute toxicity (LD50) of some of these compounds in mg/kg in the case of single oral administration to mice.

Data set [2] can be described thus: acute toxicity (LD50), single oral administration to mice. The note with it: mouse, in vivo. Here is the method:
as §1

The ED50 is the midpoint of the dose-response relation. For orientation: LD50 means the dose expected to kill half of the subjects tested. A high value points to lower toxicity. In turn, `CCN(CC)C(=O)c1cc(-c2ccccc2)c(=O)n2ncc3ccc(Cl)cc3c12` [Compound H, N,N-Diethyl-10-chloro-4-oxo-3-phenyl-4H-pyrido[2,1-a]phthalazine-1-carboxamide] showed an ED50 in data set [1] of 0.66 mg/kg. Further, the LD50 in data set [2] was more than 4000 mg/kg.

In turn, `CN(C)C(=O)c1cc(-c2ccccc2)c(=O)n2ncc3ccc(Cl)cc3c12` [Compound G, N,N-Dimethyl-10-chloro-4-oxo-3-phenyl-4H-pyrido[2,1-a]phthalazine-1-carboxamide] displayed an ED50 in data set [1] of 0.08 mg/kg. Further, the LD50 in data set [2] came out at 5000 mg/kg.

Molecule `COC1CN(C(=O)c2cc(-c3ccccc3)c(=O)n3ncc4ccccc4c23)C1` [Compound A, 3-methoxy-1-[(4-oxo-3-phenyl-4H-pyrido-[2,1-a]phthalazin-1-yl)carbonyl]azetidine] showed an ED50 in data set [1] of 1.1 mg/kg. This molecule also returned an LD50 in data set [2] of 1500 mg/kg.

`COC1CN(C(=O)c2cc(-c3ccccc3)c(=O)n3ncc4ccc(Cl)cc4c23)C1` [Compound F, 1-[(10-Chloro-4-oxo-3-phenyl-4H-pyrido[2,1-a]-phthalazin-1-yl)carbonyl]-3-methoxyazetidine] returned an ED50 in data set [1] of 0.79 mg/kg. Also, the LD50 in data set [2] was 5000 mg/kg.

The molecule `COC1CN(C(=O)c2cc(-c3ccccc3)c(=O)n3ncc4ccsc4c23)C1` [Compound M, 3-Methoxy-1-[(7-oxo-8-phenyl-7H-pyrido-[1,2-b]thieno[2,3-d]pyridazin-10-yl)carbonyl]-azetidine] showed an ED50 in data set [1] of 0.83 mg/kg. In data set [2], this molecule had an LD50 of 5000 mg/kg.
